According to patent US5409932A, “Piperazine-substituted pyrroloanthracenes” (Bayer AG, priority 1993, dated 1995):

How the values were obtained:
[1] = tested on: human T cells; experiment: Inhibition of 5-HT-dependent T Cell Proliferation; assay type: cell-based; conditions: monocyte-free human T cells stimulated with PWM and 5-HT, 3H-thymidine incorporation, 7 days
Excerpt: The in vitro activity of the compounds according to the invention results from their capability to inhibit T cell proliferation, which is previously stimulated by serotonin.
Inhibition of 5-HT-dependent T Cell Proliferation
Peripheral mononuclear blood cells (PBMC) are obtained from the buffy coat of the blood of healthy subjects. After isolation by means of isolymph gradients (Pharmacia), the PBMC are washed twice and used directly. Purified T cells are obtained by E rosette formation with sheep erythrocytes [cf. Blue, M.-L. , J. F. Daley, H. Levine, K. A. Craig and S. F. Schlossmann, 1986, Biosynthesis and surface expression of T8 by peripheral blood T4+cells in vitro, J. Immunol. 137, 1202]. Monocytes are partially removed by adhesion to tissue culture plates or flasks. PBMC, T cells or purified T cells (depleted in monocytes) at 5×10^5 /ml, 100 μl/well are cultured in RPMI 1640 medium with 10% fetal calf serum (GIBCO) and L-glutamine in 96-well microculture plates (Becton--Dickinson)under a 5% CO2 atmosphere at 37° C. for 7 days. The cultures are treated with 1 μCi of ^3 H-thymidine for 6 h on the 7th day and collected on filter paper, and the incorporated radioactivity is determined by means of liquid scintillation counting.
The test substances are dissolved in 10 mM HCl in order to achieve a final concentration of 1 mM in each case. The compounds are diluted serially 3×with medium in order to obtain a final concentration between 33 μM-0.1 μM. PWM (1:200, pokeweed mitogen) and 5-HT (100 μm, serotonin), which contain the test substances, are added to monocyte-free human T cells. The positive control (maximum proliferation) is obtained from cultures containing T cells, PWM and 5-HT. The negative control (minimal proliferation) is obtained from cultures containing T cells and PWM without 5-HT. The inhibitory activity of the test substances is expressed as the IC50 in μM. (see also WO 92/04015)

[2] = tested on: Adjuvant Arthritis model in the Rat; experiment: Adjuvant Arthritis model in the Rat (paw swelling); assay type: in vivo; conditions: Lewis rats; for Inhibition of the swelling (%), after administration of 10 mg/kg i.p.: days 0, 1, 2, 5, 7, 9, 12 and 14, day 16 vs day 0; for inhibition in vivo at 10 mg/kg: Rattus norvegicus, ip, 384 h, 10 mg/kg i.p., days 0, 1, 2, 5, 7, 9, 12 and 14, day 16 vs day 0, read-out: Inhibition of the swelling (%), after administration of 10 mg/kg i.p.
Description: Adjuvant Arthritis model in the Rat
Freund's adjuvant (FA) is prepared by addition of 10 mg/ml of heat-killed Mycobacterium butyricum to extra-heavy mineral oil. Lewis rats receive a 0.1 ml injection of FA (1 mg/animal) subcutaneously in the right hind paw. An acute inflammation takes place there, which is characterized by reddening, edema and a predominant neutrophilic cell infiltration (primary reaction). Tumescent areas in the treated paw on day 5 are followed between day 10-12 by an increase in the swelling (chronic inflammatory reaction) and the occurrence of a swelling in the opposite untreated paw (secondary immune response).
The cell infiltration of the chronic inflammation and the second immune response are mainly mononuclear, which indicates the presence of T-cell mediated immunity. The animals are observed daily, and the swelling is measured in millimeters on days 12 and 16 using a hand-adjustable micrometer. The swelling reaches its peak on the 16th day, on which the animals are sacrificed and tissue samples are taken for histological evaluation.
The extent of the swelling is determined by calculation of the greatest difference in the malleolus diameter between the 16th and the 0th day.
The animals receive the compounds according to the invention in a suspension of 5% polyethylene glycol and 0.5% Tween 80 in phosphate buffer solution p.o. or i.p. on days 0, 1, 2, 5, 7, 9, 12 and 14 [cf. for this purpose L. Sokoloff, 1984, Int. Rev. Exp. Pathol. 26, 107; M. E. J. Bittingham et al., 1989, J. Exp. Med. 171, 339; K. M. Conholly et al., 1989, Agents and Actions 27, 328].

Clc1ccc(N2CCN(CCCN3CC4C5c6ccccc6C(c6ccccc65)C4C3)CC2)cc1 (centres unmarked) [Example 108]
IC50 [1]: 4 µM | Inhibition of the swelling (%), after administration of 10 mg/kg i.p. [2]: 55%

O=C1C2C3c4ccccc4C(CO)(c4ccccc43)C2C(=O)N1CCCN1CCN(c2ccc(F)cc2)CC1 (centres unmarked) [Example 33]
IC50 ([1]; Homo sapiens, T-cell): > 10 µM | inhibition in vivo at 10 mg/kg [2]: 33%

Clc1ccc(N2CCN(CCCN3CC4C5c6ccccc6C(c6ccccc65)C4C3)CC2)cc1 (centres unmarked) [Example 59]
IC50 ([1]; Homo sapiens, T-cell): 3 µM | Inhibition of the swelling (%), after administration of 10 mg/kg i.p. [2]: 53%

Clc1ccccc1N1CCN(CCCN2CC3C4c5ccccc5C(c5ccccc54)C3C2)CC1 (centres unmarked) [Example 82]
IC50 ([1]; Homo sapiens, T-cell): 5 µM | inhibition in vivo at 10 mg/kg [2]: 35%

c1ccc(N2CCN(CCCCCN3CC4C5c6ccccc6C(c6ccccc65)C4C3)CC2)cc1 (centres unmarked) [Example 63]
IC50 ([1]; Homo sapiens, T-cell): 0.5 µM | inhibition in vivo at 10 mg/kg [2]: 26%

O=C1C2C3c4ccccc4C(c4ccccc43)C2C(=O)N1CCCN1CCN(c2ccc(Cl)cc2)CC1 (centres unmarked) [Example 2]
inhibition in vivo at 10 mg/kg [2]: 4%

c1ccc(N2CCN(CCCCCCN3CC4C5c6ccccc6C(c6ccccc65)C4C3)CC2)cc1 (centres unmarked) [Example 64]
IC50 ([1]; Homo sapiens, T-cell): 1 µM | inhibition in vivo at 10 mg/kg [2]: 76%

Cc1ccc(N2CCN(CCCN3CC4C5c6ccccc6C(c6ccccc65)C4C3)CC2)c(C)c1 (centres unmarked) [Example 90]
IC50 ([1]; Homo sapiens, T-cell): 5 µM | inhibition in vivo at 10 mg/kg [2]: 45%

Clc1ccc(N2CCN(CCCN3CC4C5c6ccccc6C(c6ccccc65)C4C3)CC2)cc1 (centres unmarked) [Example 109]
IC50 [1]: 5 µM | Inhibition of the swelling (%), after administration of 10 mg/kg i.p. [2]: 34%

CC12C(=O)N(CCCN3CCN(c4ccc(F)cc4)CC3)C(=O)C1C1c3ccccc3C2c2ccccc21 (centres unmarked) [Example 40]
IC50 ([1]; Homo sapiens, T-cell): 5 µM | inhibition in vivo at 10 mg/kg [2]: 29%

CCOc1ccccc1N1CCN(CCCN2CC3C4c5ccccc5C(c5ccccc54)C3C2)CC1 (centres unmarked) [Example 87]
IC50 ([1]; Homo sapiens, T-cell): 5 µM | inhibition in vivo at 10 mg/kg [2]: 22%

c1ccc(N2CCN(CCCN3CC4C5c6ccccc6C(c6ccccc65)C4C3)CC2)cc1 (centres unmarked) [Example 61]
IC50 ([1]; Homo sapiens, T-cell): 5 µM | inhibition in vivo at 10 mg/kg [2]: 50%

COc1ccccc1N1CCN(CCCCN2CC3C4c5ccccc5C(c5ccccc54)C3C2)CC1 (centres unmarked) [Example 71]
IC50 ([1]; Homo sapiens, T-cell): 5 µM | inhibition in vivo at 10 mg/kg [2]: 82%

Cc1ccc(N2CCN(CCCN3C(=O)C4C5c6ccccc6C(c6ccccc65)C4C3=O)CC2)cc1 (centres unmarked) [Example 11]
IC50 ([1]; Homo sapiens, T-cell): > 10 µM | inhibition in vivo at 10 mg/kg [2]: 32%

CC12C(=O)N(CCCN3CCN(c4ccccc4)CC3)C(=O)C1C1c3ccccc3C2c2ccccc21 (centres unmarked) [Example 39]
IC50 ([1]; Homo sapiens, T-cell): > 10 µM | inhibition in vivo at 10 mg/kg [2]: 20%

Cc1cccc(C)c1N1CCN(CCCN2CC3C4c5ccccc5C(c5ccccc54)C3C2)CC1 (centres unmarked) [Example 88]
IC50 ([1]; Homo sapiens, T-cell): 1 µM | inhibition in vivo at 10 mg/kg [2]: 73%

Cc1ccc(N2CCN(CCCCN3CC4C5c6ccccc6C(c6ccccc65)C4C3)CC2)cc1 (centres unmarked) [Example 74]
IC50 ([1]; Homo sapiens, T-cell): 0.6 µM | inhibition in vivo at 10 mg/kg [2]: 76%

c1ccc(N2CCN(CCN3CC4C5c6ccccc6C(c6ccccc65)C4C3)CC2)cc1 (centres unmarked) [Example 60]
IC50 ([1]; Homo sapiens, T-cell): 5 µM | inhibition in vivo at 10 mg/kg [2]: 40%

CC12c3ccccc3C(c3ccccc31)C1C(=O)N(CCCN3CCN(c4ccccc4)CC3)C(=O)C12 (centres unmarked) [Example 29]
IC50 ([1]; Homo sapiens, T-cell): > 10 µM | inhibition in vivo at 10 mg/kg [2]: 24%

CC12c3ccccc3C(c3ccccc31)C1C(=O)N(CCCN3CCN(c4ccc(Cl)cc4)CC3)C(=O)C12 (centres unmarked) [Example 30]
IC50 ([1]; Homo sapiens, T-cell): 5 µM | inhibition in vivo at 10 mg/kg [2]: 47%

c1ccc(N2CCN(CCCCN3CC4C5c6ccccc6C(c6ccccc65)C4C3)CC2)cc1 (centres unmarked) [Example 62]
IC50 ([1]; Homo sapiens, T-cell): 5 µM | inhibition in vivo at 10 mg/kg [2]: 90%

Fc1ccccc1N1CCN(CCCCN2CC3C4c5ccccc5C(c5ccccc54)C3C2)CC1 (centres unmarked) [Example 72]
IC50 ([1]; Homo sapiens, T-cell): 2 µM | inhibition in vivo at 10 mg/kg [2]: 87%

O=C1C2C3c4ccccc4C(C=Cc4ccccc4)(c4ccccc43)C2C(=O)N1CCCN1CCN(c2ccc(F)cc2)CC1 (centres unmarked) [Example 38]
IC50 ([1]; Homo sapiens, T-cell): > 10 µM

FC(F)(F)c1ccc(N2CCN(CCCN3CC4C5c6ccccc6C(c6ccccc65)C4C3)CC2)cc1 (centres unmarked) [Example 75]
IC50 ([1]; Homo sapiens, T-cell): 2 µM

CC12c3ccccc3C(c3ccccc31)C1CN(CCCN3CCN(c4ccc(F)cc4)CC3)CC12 (centres unmarked) [Example 96]
IC50 ([1]; Homo sapiens, T-cell): > 10 µM

O=C1C2C(C(=O)N1CCCN1CCN(c3ccc(F)cc3)CC1)C1(Br)c3ccccc3C2(Br)c2ccccc21 (centres unmarked) [Example 111]
IC50 [1]: 10 µM

FC(F)(F)c1ccc(N2CCN(CCCCN3CC4C5c6ccccc6C(c6ccccc65)C4C3)CC2)cc1 (centres unmarked) [Example 73]
IC50 ([1]; Homo sapiens, T-cell): 2 µM

Cc1cccc(C)c1N1CCN(CCCN2C(=O)C3C4c5ccccc5C(c5ccccc54)C3C2=O)CC1 (centres unmarked) [Example 23]
IC50 ([1]; Homo sapiens, T-cell): > 10 µM

Cc1cccc(N2CCN(CCCN3CC4C5c6ccccc6C(c6ccccc65)C4C3)CC2)c1 (centres unmarked) [Example 79]
IC50 ([1]; Homo sapiens, T-cell): 1 µM

Fc1ccc(N2CCN(CCCN3CC4C5c6ccccc6C(c6ccccc65)C4C3)CC2)cc1 (centres unmarked) [Example 58, 13-{3-[4-(4-Fluorophenyl)-piperazin-1-yl]propyl}-9,10,11,12,14,15-hexahydro-9,10[3', 4']pyrroloanthracene]
IC50 ([1]; Homo sapiens, T-cell): 5 µM | inhibition in vivo at 10 mg/kg [2]: 40%

Clc1ccccc1N1CCN(CCCCN2CC3C4c5ccccc5C(c5ccccc54)C3C2)CC1 (centres unmarked) [Example 65]
IC50 ([1]; Homo sapiens, T-cell): 0.5 µM

COc1cccc(N2CCN(CCCN3C(=O)C4C5c6ccccc6C(c6ccccc65)C4C3=O)CC2)c1 (centres unmarked) [Example 16]
IC50 ([1]; Homo sapiens, T-cell): > 10 µM

C=CC12c3ccccc3C(c3ccccc31)C1C(=O)N(CCCN3CCN(c4ccc(F)cc4)CC3)C(=O)C12 (centres unmarked) [Example 37]
IC50 ([1]; Homo sapiens, T-cell): > 10 µM

CC12c3ccccc3C(c3ccccc31)C1C(=O)N(CCCN3CCN(c4ccc(F)cc4)CC3)C(=O)C12 (centres unmarked) [Example 31]
IC50 ([1]; Homo sapiens, T-cell): > 10 µM
